From patent US20230127046A1, “G9a INHIBITOR” (RIKEN, priority 2019, published 2023)
Where two headings read alike, the source gives them in different places.

Molecular target: T1, recombinant human G9a protein (Homo sapiens, UniProt Q96KQ7)
T1 construct: purchased BPS Bioscience Inc. #51001
T1 sequence (Q96KQ7 785-1210 limits assumed): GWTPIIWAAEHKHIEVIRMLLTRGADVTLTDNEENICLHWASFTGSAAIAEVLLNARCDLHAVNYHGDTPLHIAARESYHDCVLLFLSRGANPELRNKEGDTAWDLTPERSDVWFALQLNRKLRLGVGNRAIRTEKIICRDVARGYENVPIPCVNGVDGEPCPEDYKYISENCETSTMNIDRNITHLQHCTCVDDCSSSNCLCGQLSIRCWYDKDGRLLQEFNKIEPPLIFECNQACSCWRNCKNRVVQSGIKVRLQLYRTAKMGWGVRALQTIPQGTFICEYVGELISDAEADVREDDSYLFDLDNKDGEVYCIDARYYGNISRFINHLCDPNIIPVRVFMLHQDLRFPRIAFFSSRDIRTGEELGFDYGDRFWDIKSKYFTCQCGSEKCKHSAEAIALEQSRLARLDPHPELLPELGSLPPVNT
Assay: G9a inhibitory activity test (ALPHA)
Type: biochemical
Procedure, shortened: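 Human G9a (0.05 to 0.1 nM) in Tris pH 9.0 buffer preincubated with compound 10 min, then biotinylated histone H3 (1-21) peptide and SAM mixed 1:1 from 500 nM and 150 μM solutions, 1 h at room temperature. H3K9me2 detected by AlphaLISA acceptor/streptavidin donor beads; IC50 from percent inhibition relative to no-compound and no-enzyme controls.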

[1] = read-out: Inhibitory activity (G9a IC50)
[2] = biotinylated histone H3 peptide (1-21), SAM, read-out: Inhibitory activity (G9a IC50 value)

| IC50 [1] [µM] | IC50 [2] [µM] | Compound |
| --- | --- | --- |
| ≥ 0.2 |  | CCCC[C@H](NC(=O)c1[nH]c2c(c1C)C(=O)CC(C)(C)C2)c1nc2ccc(OCCN3CCCC3)cc2[nH]1 [Example 37-3] |
| < 0.05 |  | CCc1cc(C)ncc1NC(=O)C(CCC1CC1)NC(=O)c1[nH]c2c(c1C)C(=O)CC(C)(C)C2 (stereo not shown) [Example 6-1, N-[4-cyclopropyl-1-[(4-ethyl-6-methylpyridin-3-yl)amino]-1-oxobutan-2-yl]-3,6,6-trimethyl-4-oxo-5,7-dihydro-1H-indole-2-carboxamide] |
| 0.05 to 0.2 |  | CCCC[C@H](NC(=O)c1[nH]c2c(c1CC)C(=O)CC(C)(C)C2)C(=O)Nc1ccccc1 [Example 6-35] |
| < 0.05 |  | CCCCC(NC(=O)c1[nH]c2c(c1C)C(=O)CC(C)(C)C2)C(=O)NCc1ccc(CN2CCC(F)CC2)cc1 (stereo not shown) [Example 18-10] |
| ≥ 0.2 |  | CCCC[C@H](NC(=O)c1[nH]c2c(c1C)C(=O)CC(C)(C)C2)C(=O)N1CCc2c(OCCN(C)C)cccc21 [Example 6-102] |
| 0.05 to 0.2 |  | CCCC[C@H](NC(=O)c1[nH]c2c(c1CCC)C(=O)CC(C)(C)C2)C(=O)N[C@@H](C)c1ccccc1 [Example 6-42] |
| < 0.05 |  | CCc1cc(C)ccc1NC(=O)C(CCC1CC1)NC(=O)c1[nH]c2c(c1C)C(=O)CC(C)(C)C2 (stereo not shown) [Example 14-1, N-[4-cyclopropyl-1-(2-ethyl-4-methylamino)-1-oxobutan-2-yl]-3,6,6-trimethyl-4-oxo-5,7-dihydro-1H-indole-2-carboxamide] |
|  | < 0.05 | CCc1cc(C#N)ccc1NC(=O)C(CCC1CC1)NC(=O)c1[nH]c2c(c1C)C(=O)CC(C)(C)C2 (stereo not shown) [Example 1-66] |
| ≥ 0.2 |  | COc1ccc(NC(=O)C(CCC2CC2)NC(=O)c2ccc(Nc3ccnc(OC)c3)cc2)cn1 (stereo not shown) [Example 6-64] |
| ≥ 0.2 |  | CCCCC(NC(=O)c1[nH]c2c(c1C)C(=O)CC(C)(C)C2)C(=O)Nc1cc(C)c2nc(N)sc2c1 (stereo not shown) [Example 24-5] |
| ≥ 0.2 |  | COc1ccc(NC(=O)C(CCC2CC2)NC(=O)c2sc(-c3cccnc3)nc2C(F)(F)F)cn1 (stereo not shown) [Example 6-60] |
| < 0.05 |  | COc1ccc(NC(=O)C(CCC2CC2)NC(=O)c2ccc(C3CCNCC3)cc2)cn1 (stereo not shown) [Example 28, N-[4-cyclopropyl-1-[(6-methoxypyridine-3-yl)amino]-1-oxobutan-2-yl]-4-piperidin-4-ylbenzamide] |
| < 0.05 |  | Cc1c(C(=O)NC(CCC2CC2)C(=O)NCc2cccc(CN(C)C)c2)[nH]c2c1C(=O)CC(C)(C)C2 (stereo not shown) [Example 1-148] |
| ≥ 0.2 |  | CCCCC(NC(=O)c1ccc(Nc2ccccc2)cc1C)C(=O)Nc1ccc(OC2CCN(C)CC2)nc1 (stereo not shown) [Example 11-6] |
| 0.05 to 0.2 |  | CCCCC(NC(=O)C(c1ccccc1)c1ccccc1)C(=O)Nc1ccc(OC2CCN(C)CC2)nc1 (stereo not shown) [Example 12-1, 2-[(2,2-diphenylacetyl)amino]-N-[6-(1-methylpiperidin-4-yl)oxypyridin-3-yl]hexane amide] |
| ≥ 0.2 |  | CCCCC(NC(=O)c1[nH]c2c(c1C)C(=O)CC(C)(C)C2)C(=O)Nc1cc(NC(C)=O)ccc1OC (stereo not shown) [Example 1-114] |
|  | ≥ 0.2 | CCCCC(NC(=O)c1[nH]c2c(c1C)C(=O)CC(C)(C)C2)C(=O)NCc1cccc(N2CCN(C)CC2)c1 (stereo not shown) [Example 1-92] |
| 0.05 to 0.2 |  | Cc1c(C(=O)NC(CCC2CC2)C(=O)N2CCc3c(OCCN4CCCC4)cccc32)[nH]c2c1C(=O)CC(C)(C)C2 (stereo not shown) [Example 1-120] |
| ≥ 0.2 |  | Cc1c(C(=O)NC(CCC2CC2)c2nc3cccc(CN(C)C)c3n2C)[nH]c2c1C(=O)CC(C)(C)C2 (stereo not shown) [Example 31-1, N-[3-cyclopropyl-1-[7-[(dimethylamino)methyl]-1-methylbenzoimidazol-2-yl]propyl]-3,6,6-trimethyl-4-oxo-5,7-dihydro-1H-indole-2-carboxamide] |
| ≥ 0.2 |  | CCCCC(NC(=O)c1[nH]c2c(c1C)C(=O)CC(C)(C)C2)C(=O)Nc1ccc(C(N)=O)cc1 (stereo not shown) [Example 20-1, N-[1-(4-carbamoylanilino)-1-oxohexan-2-yl]-3,6,6-trimethyl-4-oxo-5,7-dihydro-1H-indole-2-carboxamide] |
| ≥ 0.2 |  | CCCC[C@H](NC(=O)c1[nH]c2c(c1C)C(=O)CC(C)(C)C2)C(=O)N1CCc2c(OC3CCN(C)CC3)cccc21 [Example 6-106] |
| < 0.05 |  | CCCCC(NC(=O)c1[nH]c2c(c1C)C(=O)CC(C)(C)C2)C(=O)NCc1ccc(CNC(C)(C)C)cc1 (stereo not shown) [Example 18-4] |
| ≥ 0.2 |  | Cc1c(C(=O)N[C@H](CCC2CC2)C(=O)N(C)[C@@H](C)c2ccccc2)[nH]c2c1C(=O)CC(C)(C)C2 [Example 13-6] |
| ≥ 0.2 |  | CCCC[C@H](NC(=O)c1[nH]c2c(c1C)C(=O)CC(C)(C)C2)c1nc2ccc(OCCCN3CCOCC3)cc2[nH]1 [Example 34-3] |
| ≥ 0.2 |  | CCCC[C@H](NC(=O)c1[nH]c2c(c1C)C(=O)CC(C)(C)C2)C(=O)N1CCc2c(OCC3CCN(C)CC3)cccc21 [Example 6-105] |
| 0.05 to 0.2 |  | Cc1ccc(NC(=O)C(CCC2CC2)NC(=O)c2[nH]c3c(c2C(C)C)C(=O)CC(C)(C)C3)cn1 (stereo not shown) [Example 6-5] |

| IC50 [1] [µM] | IC50 [2] [µM] | Compound |
| --- | --- | --- |
| ≥ 0.2 |  | CCCC[C@H](NC(=O)c1[nH]c2c(c1CC)CCC(C)(C)C2)C(=O)Nc1ccccc1 [Example 6-101] |
| 0.05 to 0.2 |  | CCCC[C@H](NC(=O)c1[nH]c2c(c1CC)C(=O)CC(C)(C)C2)C(=O)N[C@@H](CO)c1ccccc1 [Example 6-46] |
|  | ≥ 0.2 | CCCCC(NC(=O)c1[nH]c2c(c1C)C(=O)CC(C)(C)C2)C(=O)Nc1ccc(OCCN(C)C(=O)OC(C)(C)C)nc1 (stereo not shown) [Example 1-57] |
| ≥ 0.2 |  | CCCCC(NC(=O)c1sc(-c2ccccc2)nc1C)C(=O)Nc1ccc(OC2CCN(C)CC2)nc1 (stereo not shown) [Example 11-10] |
| ≥ 0.2 |  | COc1ccc2c(c1)CCN2C(=O)C(CCC1CC1)NC(=O)c1[nH]c2c(c1C)C(=O)CC(C)(C)C2 (stereo not shown) [Example 1-130] |
|  | 0.05 to 0.2 | Cc1c(C(=O)NC(CCC2CC2)C(=O)Nc2ccc(O)nc2)[nH]c2c1C(=O)CC(C)(C)C2 (stereo not shown) [Example 1-70] |
|  | ≥ 0.2 | CCCCC(NC(=O)c1[nH]c2c(c1C)C(=O)CC(C)(C)C2)C(=O)Nc1ccc2[nH]ccc2c1 (stereo not shown) [Example 1-96] |
| ≥ 0.2 |  | CCCCC(NC(=O)c1[nH]c2c(c1C)C(=O)CC(C)(C)C2)C(=O)Nc1cccc2c1CCNC2 (stereo not shown) [Example 25-1, 3,6,6-trimethyl-4-oxo-N-[1-oxo-1-(1,2,3,4-tetrahydroisoquinolin-5-ylamino)hexan-2-yl]-5,7-dihydro-1H-indole-2-carboxamide] |
|  | 0.05 to 0.2 | CCCCC(NC(=O)c1[nH]c2c(c1C)C(=O)CC(C)(C)C2)C(=O)Nc1ccccc1CC (stereo not shown) [Example 1-23] |
|  | ≥ 0.2 | CCCCC(NC(=O)c1[nH]c2c(c1C)C(=O)CC(C)(C)C2)C(=O)NCc1ccc(N2CCN(C)CC2)cc1 (stereo not shown) [Example 1-54] |
| ≥ 0.2 |  | Cc1c(C(=O)NC(CCC2CC2)C(=O)N2CCc3c(OCCCN4CCCCC4)cccc32)[nH]c2c1C(=O)CC(C)(C)C2 (stereo not shown) [Example 1-118] |
|  | ≥ 0.2 | CCCCC(NC(=O)c1[nH]c2c(c1C)C(=O)CC(C)(C)C2)C(=O)NCc1cccc2ccccc12 (stereo not shown) [Example 1-49] |
| ≥ 0.2 |  | COc1ccc(NC(=O)C(CCC2CC2)NC(=O)Cc2cccc3ccccc23)cn1 (stereo not shown) [Example 6-53] |
| ≥ 0.2 |  | COC(=O)c1ccc2c(c1)nc(C(CCC1CC1)NC(=O)c1[nH]c3c(c1C)C(=O)CC(C)(C)C3)n2C (stereo not shown) [Example 30-3] |
| < 0.05 |  | CCc1ccc(NC(=O)C(CCC2CC2)NC(=O)c2ccc(Nc3ccncc3)cc2)cn1 (stereo not shown) [Example 6-86] |
| 0.05 to 0.2 |  | Cc1c(C(=O)NC(CCC2CC2)C(=O)Nc2ccc(C(F)(F)F)nc2)[nH]c2c1C(=O)CC(C)(C)C2 (stereo not shown) [Example 6-8] |
|  | ≥ 0.2 | Cc1c(C(=O)NC(CCC2CC2)C(=O)Nc2ccc(SC(F)F)cc2)[nH]c2c1C(=O)CC(C)(C)C2 (stereo not shown) [Example 1-65] |
| ≥ 0.2 |  | Cc1c(C(=O)N[C@H](CCC2CC2)C(=O)N(C)[C@H](C)c2ccccc2)[nH]c2c1C(=O)CC(C)(C)C2 [Example 13-4] |
| 0.05 to 0.2 |  | CCCCC(NC(=O)c1[nH]c2c(c1C)C(=O)CC(C)(C)C2)C(=O)Nc1ccc2c(c1)CNCC2 (stereo not shown) [Example 25-3] |
| ≥ 0.2 |  | Cc1c(C(=O)NC(CCC2CC2)C(=O)N2CCc3cc(CN4CCCCC4)ccc32)[nH]c2c1C(=O)CC(C)(C)C2 (stereo not shown) [Example 1-129] |
|  | 0.05 to 0.2 | CCCCC(NC(=O)c1[nH]c2c(c1C)C(=O)CC(C)(C)C2)C(=O)Nc1ccc(OC2CN(C)C2)nc1 (stereo not shown) [Example 1-3] |
| ≥ 0.2 |  | Cc1c(C(=O)NC(CCC2CC2)C(=O)Nc2ccc(C#N)nc2)[nH]c2c1C(=O)CC(C)(C)C2 (stereo not shown) [Example 6-13] |
| ≥ 0.2 |  | CCCCC(NC(=O)c1ccc(N2CCN(C)CC2)cc1C)C(=O)Nc1ccc(OC2CCN(C)CC2)nc1 (stereo not shown) [Example 11-1, 2-methyl-4-(4-methylpiperazin-1-yl)-N-[1-[[6-(1-methylpiperidin-4yl)oxypyridin-3-yl]amino]-1-oxohexan-2-yl]benzamide] |
|  | ≥ 0.2 | CCCCC(NC(=O)c1[nH]c2c(c1C)C(=O)CC(C)(C)C2)C(=O)NCc1ccccc1Cl (stereo not shown) [Example 1-41] |
|  | ≥ 0.2 | Cc1ccc2c(c1)N(C(=O)C(CCC1CC1)NC(=O)c1[nH]c3c(c1C)C(=O)CC(C)(C)C3)CC2 (stereo not shown) [Example 1-78] |
| ≥ 0.2 |  | Cc1c(C(=O)NC(CCC2CC2)c2nc3cc(CN(C)C)ccc3n2C)[nH]c2c1C(=O)CC(C)(C)C2 (stereo not shown) [Example 32, N-[3-cyclopropyl-1-[5-[(dimethylamino)methyl]-1-methylbenzoimidazol-2-yl]propyl]-3,6,6-trimethyl-4-oxo-5,7-dihydro-1H-indole-2-carboxamide] |
